Measured values reported in US8716303B2, “N-(hetero)aryl-pyrrolidine derivatives of pyrazol-4-yl-pyrrolo[2,3-d]pyrimidines and pyrrol-3-yl-pyrrolo[2,3-d]pyrimidines as janus kinase inhibitors” (Incyte Corporation, priority 2009, dated 2014).
Counter-ions that a name gives are not always drawn.

Columns and labels:
[1] = target: T1, Jak2 (a.a. 828-1132) (Homo sapiens, UniProt O60674); assay: In vitro JAK kinase assay (HTRF, phosphorylation of a biotinylated peptide), JAK2, reported as JAK2/JAK1 ratio; format: biochemical
T1 construct: Jak2 (a.a. 828-1132); His tag (N); made in house; host or cells: insect cells (baculovirus)
Procedure: (§1) Compounds herein were tested for inhibitory activity of JAK targets according to the following in vitro assay described in Park et al., Analytical Biochemistry 1999, 269, 94-104. The catalytic domains of human JAK1 (a.a. 837-1142), Jak2 (a.a. 828-1132) and Jak3 (a.a. 781-1124) with an N-terminal His tag were expressed using baculovirus in insect cells and purified. The catalytic activity of JAK1, JAK2 or JAK3 was assayed by measuring the phosphorylation of a biotinylated peptide. The phosphorylated peptide was detected by homogenous time resolved fluorescence (HTRF). IC50s of compounds were measured for each kinase in the 40 microL reactions that contain the enzyme, ATP and 500 nM peptide in 50 mM Tris (pH 7.8) buffer with 100 mM NaCl, 5 mM DTT, and 0.1 mg/mL (0.01%) BSA. The ATP concentration in the reactions was 90 μM for Jak1, 30 μM for Jak2 and 3 μM for Jak3 for Km conditions. For the 1 mM IC50 measurements, ATP concentration in the reactions was 1 mM. Reactions were carried out at RT for 1 h and then stopped with 20 μL 45 mM EDTA, 300 nM SA-APC, 6 nM Eu-Py20 in assay buffer (Perkin Elmer, Boston, Mass.). Binding to the Europium labeled antibody took place for 40 min and HTRF signal was measured on a Fusion plate reader (Perkin Elmer, Boston, Mass.).
(§2) Compounds herein were tested for inhibitory activity of JAK1 and JAK2 targets according to the assay of Example A (experiments run at Km or 1 mM as indicated). The symbol “+” indicates an IC50<50 nM; the symbol “++” indicates an IC50≧50 and ≦100 nM; and the symbol “+++” indicates an IC50>100 and ≦500 nM.

[2] = target: T2, human JAK1 (a.a. 837-1142) (Homo sapiens, UniProt P23458); assay: In vitro JAK kinase assay (HTRF, phosphorylation of a biotinylated peptide), JAK1; format: biochemical
T2 construct: human JAK1 (a.a. 837-1142); His tag (N); made in house; host or cells: insect cells (baculovirus)
Procedure: as §1, §2

[3] = Assay Conditions Km (ATP 90 μM for Jak1, 30 μM for Jak2)
[4] = Assay Conditions Km (ATP 90 μM for Jak1)

T2 sequence (P23458 849-1154): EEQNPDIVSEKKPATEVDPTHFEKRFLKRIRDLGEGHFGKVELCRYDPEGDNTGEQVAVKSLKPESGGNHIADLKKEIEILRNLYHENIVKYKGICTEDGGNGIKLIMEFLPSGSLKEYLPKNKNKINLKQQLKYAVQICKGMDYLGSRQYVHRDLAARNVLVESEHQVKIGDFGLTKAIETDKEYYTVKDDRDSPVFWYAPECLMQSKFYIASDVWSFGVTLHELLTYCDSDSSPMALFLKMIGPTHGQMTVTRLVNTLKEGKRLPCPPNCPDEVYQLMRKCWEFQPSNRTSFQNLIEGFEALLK
T1 sequence (O60674 828-1132): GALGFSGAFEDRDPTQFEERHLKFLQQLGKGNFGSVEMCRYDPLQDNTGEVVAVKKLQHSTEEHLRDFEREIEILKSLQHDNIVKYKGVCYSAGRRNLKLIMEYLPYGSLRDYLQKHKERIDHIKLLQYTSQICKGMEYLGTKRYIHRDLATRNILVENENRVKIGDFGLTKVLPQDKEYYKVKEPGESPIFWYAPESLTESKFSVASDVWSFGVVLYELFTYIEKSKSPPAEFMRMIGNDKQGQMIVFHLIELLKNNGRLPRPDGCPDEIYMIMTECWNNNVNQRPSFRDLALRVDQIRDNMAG

| SMILES | JAK2/JAK1 IC50 ratio ([1]; Assay Conditions 1 mM ATP) | IC50 ([2]; Assay Conditions 1 mM ATP) | JAK2/JAK1 IC50 ratio [1, 3] | IC50 [2, 4] |
| --- | --- | --- | --- | --- |
| FCC([C@H]1CCN(c2nc3cccnc3o2)C1)n1cc(-c2ncnc3[nH]ccc23)cn1 (stereo partly drawn) [70 (3S- enantiomer), 2-((3S)-3-{2-fluoro-1-[4-(7H-pyrrolo[2,3-d]pyrimidin-4-yl)-1H-pyrazol-1-yl]ethyl}pyrrolidin-1-yl)[1,3]oxazolo[5,4-b]pyridine phosphoric acid salt] | 15 | < 50 nM |  |  |
| N#CCC(C1CCN(c2nc3cccnc3o2)C1)n1cc(-c2ncnc3[nH]ccc23)cn1 (single isomer, unassigned) [Example 13b, 3-(1-[1,3]oxazolo[5,4-b]pyridin-2-ylpyrrolidin-3-yl)-3-[4-(7H-pyrrolo[2,3-d]pyrimidin-4-yl)-1H-pyrazol-1-yl]propanenitrile] |  |  | 2.1 | < 50 nM |
| Cc1cnc2oc(N3CCC(C(CC#N)n4cc(-c5ncnc6[nH]ccc56)cn4)C3)nc2c1 (single isomer, unassigned) [Example 14, 3-[1-(6-methyl[1,3]oxazolo[5,4-b]pyridin-2-yl)pyrrolidin-3-yl]-3-[4-(7H-pyrrolo[2,3-d]pyrimidin-4-yl)-1H-pyrazol-1-yl]propanenitrile] |  |  | 4 | < 50 nM |
| COCc1c(F)cnc(N2CC[C@H]([C@H](CC#N)n3cc(-c4ncnc5[nH]ccc45)cn3)C2)c1C#N [Example 95, 2-((3S)-3-{(1S)-2-cyano-1-[4-(7H-pyrrolo[2,3-d]pyrimidin-4-yl)-1H-pyrazol-1-yl]ethyl}pyrrolidin-1-yl)-5-fluoro-4-(methoxymethyl)nicotinonitrile bis(trifluoroacetate)] | 16.4 | < 50 nM |  |  |
| N#CC[C@@H]([C@H]1CCN(c2ncc3ncsc3n2)C1)n1cc(-c2ncnc3[nH]ccc23)cn1 [Example 102, (3S)-3-[4-(7H-pyrrolo[2,3-d]pyrimidin-4-yl)-1H-pyrazol-1-yl]-3-[(3S)-1-[1,3]thiazolo[5,4-d]pyrimidin-5-ylpyrrolidin-3-yl]propanenitrile bis(trifluoroacetate)] | 12.8 | < 50 nM |  |  |
| N#CCC(C1CCN(c2nc3cc(F)cnc3o2)C1)n1cc(-c2ncnc3[nH]ccc23)cn1 (single isomer, unassigned) [Example 15, 3-[1-(6-fluoro[1,3]oxazolo[5,4-b]pyridin-2-yl)pyrrolidin-3-yl]-3-[4-(7H-pyrrolo[2,3-d]pyrimidin-4-yl)-1H-pyrazol-1-yl]propanenitrile] |  |  | 6.8 | < 50 nM |
| N#CCC(C1CCN(c2ccnc(Cl)n2)C1)n1cc(-c2ncnc3[nH]ccc23)cn1 (single isomer, unassigned) [3, Step 2a] |  |  | 2.3 | < 50 nM |
| COc1ncc(F)c(N2CC[C@H]([C@H](CC#N)n3cc(-c4ncnc5[nH]ccc45)cn3)C2)n1 [Example 104, (S)-3-(4-(7H-pyrrolo[2,3-d]pyrimidin-4-yl)-1H-pyrazol-1-yl)-3-((S)-1-(5-fluoro-2-methoxypyrimidin-4-yl)pyrrolidin-3-yl)propanenitrile trifluoroacetate salt] | 5.9 | < 50 nM |  |  |
| N#CC[C@@H]([C@H]1CCN(c2ncccc2C#N)C1)n1cc(-c2ncnc3[nH]ccc23)cn1 [Example 62, 2-((3S)-3-{(1S)-2-cyano-1-[4-(7H-pyrrolo[2,3-d]pyrimidin-4-yl)-1H-pyrazol-1-yl]ethyl}pyrrolidin-1-yl) nicotinonitrile trifluoroacetate salt] | 7.1 | < 50 nM |  |  |
| Cn1ccc2cnc(N3CCC(C(CC#N)n4cc(-c5ncnc6[nH]ccc56)cn4)C3)nc21 (single isomer, unassigned) [Example 17, 3-[1-(7-methyl-7H-pyrrolo[2,3-d]pyrimidin-2-yl)pyrrolidin-3-yl]-3-[4-(7H-pyrrolo[2,3-d]pyrimidin-4-yl)-1H-pyrazol-1-yl]propanenitrile] | 8 | 100 to 500 nM |  |  |
| N#CC[C@@H]([C@H]1CCN(c2cccc(C(F)F)c2C#N)C1)n1cc(-c2ncnc3[nH]ccc23)cn1 [Example 111, 2-((S)-3-((S)-1-(4-(7H-pyrrolo[2,3-d]pyrimidin-4-yl)-1H-pyrazol-1-yl)-2-cyanoethyl)pyrrolidin-1-yl)-6-(difluoromethyl)benzonitrile trifluoroacetate salt] | 37.6 | < 50 nM |  |  |
| N#CCC(C1CCN(c2nccc(C#N)c2C#N)C1)n1cc(-c2ncnc3[nH]ccc23)cn1 (racemic) [Example 39, ±2-(3-{2-cyano-1-[4-(7H-pyrrolo[2,3-d]pyrimidin-4-yl)-1H-pyrazol-1-yl]ethyl}pyrrolidin-1-yl)pyridine-3,4-dicarbonitrile trifluoroacetate] | 15.5 | < 50 nM |  |  |
| N#CCC(C1CCN(c2scc(C#N)c2C#N)C1)n1ccc(-c2ncnc3[nH]ccc23)c1 (single isomer, unassigned) [81 enantiomer 2] | 8.1 | < 50 nM |  |  |
| N#CC[C@@H]([C@H]1CCN(c2ncc3sccc3c2C#N)C1)n1cc(-c2ncnc3[nH]ccc23)cn1 [Example 74, 5-((3S)-3-{(1S)-2-cyano-1-[4-(7H-pyrrolo[2,3-d]pyrimidin-4-yl)-1H-pyrazol-1-yl]ethyl}pyrrolidin-1-yl)thieno[2,3-c]pyridine-4-carbonitrile] | 6.2 | < 50 nM |  |  |

The next lines start with the values.

| JAK2/JAK1 IC50 ratio ([1]; Assay Conditions 1 mM ATP) | IC50 ([2]; Assay Conditions 1 mM ATP) | JAK2/JAK1 IC50 ratio [1, 3] | IC50 [2, 4] | SMILES |
| --- | --- | --- | --- | --- |
| >11.4 | < 50 nM |  |  | N#CCC(C1CCN(c2nc3cccc(C#N)c3o2)C1)n1cc(-c2ncnc3[nH]ccc23)cn1 (single isomer, unassigned) [Example 160, 2-(3-{2-cyano-1-[4-(7H-pyrrolo[2,3-d]pyrimidin-4-yl)-1H-pyrazol-1-yl]ethyl}pyrrolidin-1-yl)-1,3-benzoxazole-7-carbonitrile] |
| 31.8 | < 50 nM |  |  | N#Cc1c(N2CC[C@H](C(CF)n3cc(-c4ncnc5[nH]ccc45)cn3)C2)ncc2c1S(=O)(=O)CC2 (single isomer, unassigned) [Example 178] |
| 15.4 | < 50 nM |  |  | N#CCC(C1CCN(c2ncc3ccsc3c2C#N)C1)n1cc(-c2ncnc3[nH]ccc23)cn1 (single isomer, unassigned) [Example 175, 6-(3-{2-cyano-1-[4-(7H-pyrrolo[2,3-d]pyrimidin-4-yl)-1H-pyrazol-1-yl]ethyl}pyrrolidin-1-yl)thieno[3,2-c]pyridine-7-carbonitrile] |
| 22.5 | < 50 nM |  |  | N#CCC(C1CCN(c2nc3cccc(F)c3o2)C1)n1ccc(-c2ncnc3[nH]ccc23)c1 (single isomer, unassigned) [Example 158-1, 3-[1-(7-fluoro-1,3-benzoxazol-2-yl)pyrrolidin-3-yl]-3-[3-(7H-pyrrolo[2,3-d]pyrimidin-4-yl)-1H-pyrrol-1-yl]propanenitrile] |
| >11.1 | < 50 nM |  |  | Cc1cnc(N2CC[C@H]([C@H](CC#N)n3cc(-c4ncnc5[nH]ccc45)cn3)C2)c(C#N)n1 [Example 145, 3-((3S)-3-{(1S)-2-cyano-1-[4-(7H-pyrrolo[2,3-d]pyrimidin-4-yl)-1H-pyrazol-1-yl]ethyl}pyrrolidin-1-yl)-6-methylpyrazine-2-carbonitrile trifluoroacetate] |
| 188.0 | < 50 nM |  |  | N#CC[C@@H]([C@H]1CCN(c2nccc(I)c2C#N)C1)n1cc(-c2ncnc3[nH]ccc23)cn1 [Example 122, 2-((3S)-3-{(1S)-2-cyano-1-[4-(7H-pyrrolo[2,3-d]pyrimidin-4-yl)-1H-pyrazol-1-yl]ethyl}pyrrolidin-1-yl)-4-iodonicotinonitrile trifluoroacetate] |
| 4.5 | < 50 nM |  |  | N#CCC(C1CCN(c2scnc2C#N)C1)n1ccc(-c2ncnc3[nH]ccc23)c1 (racemic) [Example 149-2, 5-(3-{2-cyano-1-[3-(7H-pyrrolo[2,3-d]pyrimidin-4-yl)-1H-pyrrol-1-yl]ethyl}pyrrolidin-1-yl)-1,3-thiazole-4-carbonitrile] |
| 7.6 | < 50 nM |  |  | O=S1(=O)CCc2ccc(N3CC[C@H](C(CF)n4cc(-c5ncnc6[nH]ccc56)cn4)C3)nc21 (stereo partly drawn) [Example 119, 4-(1-{1-[(3S)-1-(1,1-dioxido-2,3-dihydrothieno[2,3-b]pyridin-6-yl)pyrrolidin-3-yl]-2-fluoroethyl}-1H-pyrazol-4-yl)-7H-pyrrolo[2,3-d]pyrimidine trifluoroacetate] |
| 4.4 | < 50 nM |  |  | N#Cc1cccc(N2CC[C@H](C(CF)n3cc(-c4ncnc5[nH]ccc45)cn3)C2)c1C#N (stereo partly drawn) [Example 121, 3-((3S)-3-{2-fluoro-1-[4-(7H-pyrrolo[2,3-d]pyrimidin-4-yl)-1H-pyrazol-1-yl]ethyl}pyrrolidin-1-yl)phthalonitrile trifluoroacetate] |
